In PubChem BioAssay (NCI):
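Exposure lasted 48 hours, with cells grown in 96-well plates and compounds tested at five concentrations. TGI denotes the concentration required for complete inhibition of growth.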

Key:
Test in all cases: inhibition of tumour cell growth, NCI panel, 48 h
HT29 colon = system: HT29 colon
SK-MEL-5 melanoma = system: SK-MEL-5 melanoma
NCI-H460 lung = system: NCI-H460 lung
SR leukemia = system: SR leukemia
RPMI-8226 leukemia = system: RPMI-8226 leukemia
SK-MEL-28 melanoma = system: SK-MEL-28 melanoma
NCI-H23 lung = system: NCI-H23 lung
CCRF-CEM leukemia = system: CCRF-CEM leukemia
LOX IMVI melanoma = system: LOX IMVI melanoma
OVCAR-8 ovarian = system: OVCAR-8 ovarian
MOLT-4 leukemia = system: MOLT-4 leukemia
HCC-2998 colon = system: HCC-2998 colon
DLD-1 colon = system: DLD-1 colon
LXFL 529 NSCLC = system: LXFL 529 NSCLC
OVCAR-3 ovarian = system: OVCAR-3 ovarian
SK-OV-3 ovarian = system: SK-OV-3 ovarian
HCT-15 colon = system: HCT-15 colon
HCT-116 colon = system: HCT-116 colon
HOP-62 NSCLC = system: HOP-62 NSCLC
SF-268 CNS = system: SF-268 CNS
KM12 colon = system: KM12 colon
UACC-62 melanoma = system: UACC-62 melanoma
ACHN renal = system: ACHN renal
A549 NSCLC = system: A549 NSCLC
UO-31 renal = system: UO-31 renal
SF-539 CNS = system: SF-539 CNS
OVCAR-4 ovarian = system: OVCAR-4 ovarian
M14 melanoma = system: M14 melanoma
SW-620 colon = system: SW-620 colon
UACC-257 melanoma = system: UACC-257 melanoma
KM20L2 colon = system: KM20L2 colon
A498 renal = system: A498 renal
IGROV1 ovarian = system: IGROV1 ovarian
SNB-19 CNS = system: SNB-19 CNS
COLO 205 colon = system: COLO 205 colon
SNB-75 CNS = system: SNB-75 CNS
SF-295 CNS = system: SF-295 CNS
K-562 leukemia = system: K-562 leukemia
HOP-18 NSCLC = system: HOP-18 NSCLC
HL-60(TB) leukemia = system: HL-60(TB) leukemia
OVCAR-5 ovarian = system: OVCAR-5 ovarian
M19-MEL melanoma = system: M19-MEL melanoma
SK-MEL-2 melanoma = system: SK-MEL-2 melanoma
NCI-H226 lung = system: NCI-H226 lung
DMS 114 small cell lung = system: DMS 114 small cell lung
CAKI-1 renal = system: CAKI-1 renal
U251 CNS = system: U251 CNS
MALME-3M melanoma = system: MALME-3M melanoma
SN12C renal = system: SN12C renal
SNB-78 CNS = system: SNB-78 CNS
EKVX NSCLC = system: EKVX NSCLC
NCI-H522 lung = system: NCI-H522 lung
DMS 273 small cell lung = system: DMS 273 small cell lung
RXF 393 renal = system: RXF 393 renal
TK-10 renal = system: TK-10 renal
HOP-92 NSCLC = system: HOP-92 NSCLC
786-0 renal = system: 786-0 renal

Measured: TGI

O=C(OCCOC(=O)c1ccc2c(c1)C1(SCCS1)c1ccccc1-2)c1ccc2c(c1)C1(SCCS1)c1ccccc1-2
not listed: DMS 273 small cell lung | RXF 393 renal | TK-10 renal | HOP-92 NSCLC | 786-0 renal
> 100 µM: all other assays above

NC1C(O)C(O)C(CO)OC1n1cc(F)c(=O)[nH]c1=O (stereo unspecified)
not listed: OVCAR-8 ovarian | OVCAR-3 ovarian | HOP-62 NSCLC | UACC-62 melanoma | UO-31 renal | SF-539 CNS | M14 melanoma | KM20L2 colon | A498 renal | IGROV1 ovarian | K-562 leukemia | M19-MEL melanoma | EKVX NSCLC | 786-0 renal
> 100 µM: all other assays above

CC1CC(=O)C2CC(CO)=CCCC2C1(C)CC/C(=C/CO)CO (stereo unspecified)
not listed: SR leukemia | LOX IMVI melanoma | HOP-62 NSCLC | SF-268 CNS | SF-539 CNS | OVCAR-4 ovarian | KM20L2 colon | SNB-19 CNS | HL-60(TB) leukemia | OVCAR-5 ovarian | SK-MEL-2 melanoma
> 100 µM: all other assays above
